From PubChem BioAssay AID276 (DTP/NCI, 2004)
“And” between values parts separate entries of the source, which are not always exact repeats. Equal entries are not always repeated. Toxic doses and inconclusive results are not listed.

Test system: B6C3F1 mice, Lewis lung carcinoma iv, survival T/C
Assay: NCI In Vivo Anticancer Drug Screen. Data for tumor model Lewis Lung Carcinoma (intravenous) in B6C3F1 mice
Conditions: endpoint: median survival time, higher = longer survival
In short: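 Transplantable tumor in mice; compound treated vs vehicle controls; read-out survival; value = treated/control (T/C).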

[1] = dose: 25.0 mg/kg/injection, schedule: Q01DX009 (ip), vehicle: Klucel (hydroxypropylcellulose) (HPC)
[2] = dose: 50.0 mg/kg/injection, schedule: Q01DX009 (ip), vehicle: Klucel (hydroxypropylcellulose) (HPC)
[3] = dose: 100.0 mg/kg/injection, schedule: Q01DX009 (ip), vehicle: Klucel (hydroxypropylcellulose) (HPC)
[4] = dose: 200.0 mg/kg/injection, schedule: Q01DX009 (ip), vehicle: Klucel (hydroxypropylcellulose) (HPC)

In the case of `CC1=C/C(O)CC(=O)Cc2nc(co2)C(=O)N2CCC=C2C(=O)OC(C(C)C)C(C)/C=C\C(=O)NC/C=C\1` (configuration not stated), the T/C [1] is reported as 98 % of control, the T/C [2] is reported as 104 % of control and the T/C [3] is reported as 92 % of control. For the same molecule, the T/C [4] was 97 % of control and the T/C (dose: 400.0 mg/kg/injection, schedule: Q01DX009 (ip), vehicle: Klucel (hydroxypropylcellulose) (HPC)) was 104 % of control.

In the case of `C[CH2][Pb]([CH2]C)([CH2]C)[O]C(=O)COc1ccccc1`, the T/C (dose: 0.08 mg/kg/injection, schedule: Q01DX009 (ip), vehicle: saline with Tween-80) is reported as 107 % of control, the T/C (dose: 0.15 mg/kg/injection, schedule: Q01DX009 (ip), vehicle: saline with Tween-80) is reported as 99 % of control and the T/C (dose: 0.3 mg/kg/injection, schedule: Q01DX009 (ip), vehicle: saline with Tween-80) is reported as 99 % of control. The T/C (dose: 0.6 mg/kg/injection, schedule: Q01DX009 (ip), vehicle: saline with Tween-80) was 109 % of control and the T/C (dose: 1.2 mg/kg/injection, schedule: Q01DX009 (ip), vehicle: saline with Tween-80) was 108 % of control.

`CCN1/C(=C/C=C/C=C\C=C\c2sc3ccc4ccccc4c3[n+]2CC)Sc2ccc3ccccc3c21` was tested, and the T/C (dose: 1.25 mg/kg/injection, schedule: Q01DX009 (ip), vehicle: saline with Tween-80) was 104 % of control, the T/C (dose: 2.5 mg/kg/injection, schedule: Q01DX009 (ip), vehicle: saline with Tween-80) was 100 % of control and 103 % of control and the T/C (dose: 5.0 mg/kg/injection, schedule: Q01DX009 (ip), vehicle: saline with Tween-80) was 104 % of control. For the same molecule, the T/C (dose: 10.0 mg/kg/injection, schedule: Q01DX009 (ip), vehicle: saline with Tween-80) was 98 % of control and the T/C (dose: 20.0 mg/kg/injection, schedule: Q01DX009 (ip), vehicle: saline with Tween-80) was 103 % of control.

`Cc1c(-c2ccc(C3CCCCC3)cc2)nc2ccc(F)cc2c1C(=O)O` was tested, and the T/C [1] was 96 % of control, the T/C [2] was 110 % of control and the T/C [3] was 118 % of control. The T/C [4] was 112 % of control.

With `OCCN1CCN(CC/C=C2/c3ccccc3Sc3ccc(C(F)(F)F)cc32)CC1` the T/C (dose: 0.19 mg/kg/injection, schedule: Q01DX009 (ip), vehicle: saline) was 114 % of control, the T/C (dose: 0.39 mg/kg/injection, schedule: Q01DX009 (ip), vehicle: saline) was 101 % of control and the T/C (dose: 0.78 mg/kg/injection, schedule: Q01DX009 (ip), vehicle: saline) was 102 % of control. The T/C (dose: 1.56 mg/kg/injection, schedule: Q01DX009 (ip), vehicle: saline) was 98 % of control, the T/C (dose: 3.12 mg/kg/injection, schedule: Q01DX009 (ip), vehicle: saline) was 98 % of control and the T/C (dose: 6.25 mg/kg/injection, schedule: Q01DX009 (ip), vehicle: saline) was 108 % of control.

For `CC(=O)OC1C2(CC3N4C(=O)C5(CO)SSC4(CC31O)C(=O)N5C)OC(C)C(C)(C)C2=O` (configuration not stated), the T/C (dose: 0.08 mg/kg/injection, schedule: Q01DX009 (ip), vehicle: saline) was 101 % of control, the T/C (dose: 0.15 mg/kg/injection, schedule: Q01DX009 (ip), vehicle: saline) was 88 % of control and the T/C (dose: 0.31 mg/kg/injection, schedule: Q01DX009 (ip), vehicle: saline) was 105 % of control. For the same molecule, the T/C (dose: 0.62 mg/kg/injection, schedule: Q01DX009 (ip), vehicle: saline) was 92 % of control and the T/C (dose: 1.25 mg/kg/injection, schedule: Q01DX009 (ip), vehicle: saline) was 86 % of control.

`CC(C)N1CC(COc2cccc3ccccc23)OP1(=O)N(CCCl)CCCl` (configuration not stated) was tested, and the T/C (dose: 1.56 mg/kg/injection, schedule: Q01DX009 (ip), vehicle: distilled water + Tween-80) was 98 % of control, the T/C (dose: 3.13 mg/kg/injection, schedule: Q01DX009 (ip), vehicle: distilled water + Tween-80) was 96 % of control and the T/C (dose: 6.25 mg/kg/injection, schedule: Q01DX009 (ip), vehicle: distilled water + Tween-80) was 101 % of control. The T/C (dose: 12.5 mg/kg/injection, schedule: Q01DX009 (ip), vehicle: distilled water + Tween-80) was 102 % of control, the T/C (dose: 25.0 mg/kg/injection, schedule: Q01DX009 (ip), vehicle: distilled water + Tween-80) was 102 % of control and the T/C (dose: 50.0 mg/kg/injection, schedule: Q01DX009 (ip), vehicle: distilled water + Tween-80) was 95 % of control. For the same molecule, the T/C (dose: 100.0 mg/kg/injection, schedule: Q01DX009 (ip), vehicle: distilled water + Tween-80) was 106 % of control, the T/C (dose: 200.0 mg/kg/injection, schedule: Q01DX009 (ip), vehicle: distilled water + Tween-80) was 90 % of control and the T/C (dose: 400.0 mg/kg/injection, schedule: Q01DX009 (ip), vehicle: distilled water + Tween-80) was 90 % of control.

`CC(CN1CC(=O)NC(=O)C1)N1CC(=O)NC(=O)C1` (configuration not stated) was tested, and the T/C (dose: 108.0 mg/kg/injection, schedule: Q04DX003 (ip), vehicle: Klucel (hydroxypropylcellulose) (HPC)) was 109 % of control, the T/C (dose: 180.0 mg/kg/injection, schedule: Q04DX003 (ip), vehicle: Klucel (hydroxypropylcellulose) (HPC)) was 119 % of control and the T/C (dose: 300.0 mg/kg/injection, schedule: Q04DX003 (ip), vehicle: Klucel (hydroxypropylcellulose) (HPC)) was 158 % of control.

For `O=S(=O)(CCl)OCCCl`, the T/C (dose: 6.25 mg/kg/injection, schedule: Q01DX009 (ip), vehicle: saline with Tween-80) was 103 % of control and 86 % of control, the T/C (dose: 12.5 mg/kg/injection, schedule: Q01DX009 (ip), vehicle: saline with Tween-80) was 100 % of control and 111 % of control and the T/C (dose: 25.0 mg/kg/injection, schedule: Q01DX009 (ip), vehicle: saline with Tween-80) was 99 % of control and 101 % of control and 109 % of control. For the same molecule, the T/C (dose: 50.0 mg/kg/injection, schedule: Q01DX009 (ip), vehicle: saline with Tween-80) was 104 % of control and 114 % of control and 88 % of control and the T/C (dose: 100.0 mg/kg/injection, schedule: Q01DX009 (ip), vehicle: saline with Tween-80) was 118 % of control and 258 % of control.
